Test results taken from ChEMBL document CHEMBL3580555, “Design, Synthesis, and Biological Evaluation of Novel Imidazo[1,2-a]pyridine Derivatives as Potent c-Met Inhibitors” (ACS Med Chem Lett, 2015).

What was measured:
[1] = target: Hepatocyte growth factor receptor (Homo sapiens) (UniProt P08581); experiment: Inhibition of C-Met (unknown origin) using polu (Glu,Tyr)4:1 substrate at 100 uM after 30 mins incubation by multi-well spectrophotometry
[2] = Antiproliferative activity against human EBC1 cells after 72 hrs; details: EBC-1, 72 h
[3] = Antiproliferative activity against human MKN45 cells after 72 hrs; format: functional, cell-based; details: MKN-45, 72 h
[4] = Antiproliferative activity against human SNU5 cells after 72 hrs; format: functional, cell-based; details: SNU-5, 72 h
BaF3 = experiment: Antiproliferative activity against mouse BAF3/TPR-Met cells after 72 hrs; format: functional, cell-based; details: BaF3, 72 h

Sequence of Hepatocyte growth factor receptor (Homo sapiens) (P08581 whole entry): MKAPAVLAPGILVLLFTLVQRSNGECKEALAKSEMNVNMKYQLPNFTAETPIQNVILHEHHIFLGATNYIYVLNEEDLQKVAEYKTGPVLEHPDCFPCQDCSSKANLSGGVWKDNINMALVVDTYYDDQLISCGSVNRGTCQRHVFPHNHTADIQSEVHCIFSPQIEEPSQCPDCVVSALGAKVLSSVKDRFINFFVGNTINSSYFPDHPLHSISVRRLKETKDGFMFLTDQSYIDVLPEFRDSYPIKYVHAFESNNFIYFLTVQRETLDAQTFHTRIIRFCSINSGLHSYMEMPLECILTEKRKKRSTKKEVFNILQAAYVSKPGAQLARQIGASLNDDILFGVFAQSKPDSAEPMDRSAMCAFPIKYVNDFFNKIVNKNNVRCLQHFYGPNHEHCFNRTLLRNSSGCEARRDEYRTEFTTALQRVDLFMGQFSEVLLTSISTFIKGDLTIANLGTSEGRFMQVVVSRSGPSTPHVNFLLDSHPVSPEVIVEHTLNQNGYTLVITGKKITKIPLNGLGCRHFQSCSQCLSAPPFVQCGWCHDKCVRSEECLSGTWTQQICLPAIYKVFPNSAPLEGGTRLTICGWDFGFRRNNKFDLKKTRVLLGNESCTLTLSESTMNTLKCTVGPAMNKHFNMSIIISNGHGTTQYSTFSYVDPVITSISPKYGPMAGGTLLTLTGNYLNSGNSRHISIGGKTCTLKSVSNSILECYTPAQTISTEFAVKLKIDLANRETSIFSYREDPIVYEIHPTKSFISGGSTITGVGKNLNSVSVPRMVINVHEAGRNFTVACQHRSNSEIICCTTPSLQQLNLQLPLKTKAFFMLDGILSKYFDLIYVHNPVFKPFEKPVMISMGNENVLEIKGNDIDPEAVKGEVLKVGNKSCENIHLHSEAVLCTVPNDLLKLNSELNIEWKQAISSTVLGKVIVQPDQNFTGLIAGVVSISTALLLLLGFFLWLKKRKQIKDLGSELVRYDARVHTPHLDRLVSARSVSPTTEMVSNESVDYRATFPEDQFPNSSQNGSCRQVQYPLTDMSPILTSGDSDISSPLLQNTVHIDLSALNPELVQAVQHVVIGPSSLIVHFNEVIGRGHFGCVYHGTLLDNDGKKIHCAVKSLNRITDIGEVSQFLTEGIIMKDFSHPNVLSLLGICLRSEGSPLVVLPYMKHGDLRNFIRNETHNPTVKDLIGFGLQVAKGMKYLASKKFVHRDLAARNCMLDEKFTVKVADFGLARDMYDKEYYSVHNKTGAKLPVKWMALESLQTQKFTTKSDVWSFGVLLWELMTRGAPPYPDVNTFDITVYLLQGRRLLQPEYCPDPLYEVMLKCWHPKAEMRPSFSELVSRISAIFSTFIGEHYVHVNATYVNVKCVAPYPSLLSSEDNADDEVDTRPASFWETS

Cn1cc(-c2cn3c(Cc4ccc5ncccc5c4)cnc3cc2C#N)cn1 showed an inhibition [1] of 33.3%.
Compound CN1CCN(C(=O)c2ccc(-c3cc(F)c4ncc(Cc5ccc6ncccc6c5)n4c3)cc2F)CC1 has an IC50 [2] of 0.869 µM.
O=C(NC1CCOCC1)c1ccc(-c2cc(F)c3ncc(Cc4ccc5ncccc5c4)n3c2)cc1F gave an IC50 [2] of 0.0705 µM.
Cn1cc(-c2ccc3nnc(C(F)(F)c4ccc5ncccc5c4)n3n2)cn1 [JNJ-38877605] gave an IC50 [2] of 0.0095 µM, an IC50 [3] of 0.0109 µM and an IC50 [4] of 0.0158 µM. It also gave an IC50 (BaF3) of 0.0176 µM.
In the case of C[C@@H](Oc1cc(-c2cnn(C3CCNCC3)c2)cnc1N)c1c(Cl)ccc(F)c1Cl [CRIZOTINIB], the IC50 [2] is reported as 0.0218 µM, the IC50 [3] is reported as 0.0381 µM and the IC50 [4] is reported as 0.0204 µM. The IC50 (BaF3) was 0.127 µM.
For CNC(=O)c1cc(-c2cc(F)c3ncc(Cc4ccc5ncccc5c4)n3c2)ccc1F, the IC50 [2] was 0.246 µM.
For Cn1cc(-c2cc(F)c3ncc(Cc4ccc5ncccc5c4)n3c2)cn1, the IC50 [2] was 0.27 µM.
For COc1ccc(-c2cc(F)c3ncc(Cc4ccc5ncccc5c4)n3c2)cc1F, the IC50 [2] was 0.407 µM.
Work on Fc1cc(-c2ccsc2)cn2c(Cc3ccc4ncccc4c3)cnc12 yielded an IC50 [2] of 0.444 µM.
With CNC(=O)c1cc(-c2cc(F)c3ncc(Cc4ccc5ncccc5c4)n3c2)ccc1Cl the IC50 [2] was 0.946 µM.
Fc1cc(-c2ccc(N3CCOCC3)nc2)cn2c(Cc3ccc4ncccc4c3)cnc12 showed an IC50 [2] of 0.225 µM.
For CN(C)CCNC(=O)c1ccc(-c2cc(F)c3ncc(Cc4ccc5ncccc5c4)n3c2)cc1F, the IC50 [2] was 0.049 µM.
O=C(NCCN1CCOCC1)c1ccc(-c2cc(F)c3ncc(Cc4ccc5ncccc5c4)n3c2)cc1F gave an IC50 [2] of 0.052 µM.
O=C(NCCCN1CCCC1)c1ccc(-c2cc(F)c3ncc(Cc4ccc5ncccc5c4)n3c2)cc1F showed an IC50 [2] of 0.161 µM.
Compound OCCn1cc(-c2cc(F)c3ncc(Cc4ccc5ncccc5c4)n3c2)cn1 has an IC50 [2] of 0.34 µM.
Compound N#Cc1cccc(-c2cc(F)c3ncc(Cc4ccc5ncccc5c4)n3c2)c1 has an IC50 [2] of 0.107 µM.
O=C(NC1CCCNC1)c1ccc(-c2cc(F)c3ncc(Cc4ccc5ncccc5c4)n3c2)cc1F (stereo not drawn) showed an IC50 [2] of 0.138 µM.
